Consider one compound from patent US20250382286A1, “CO-CRYSTAL OF AFICAMTEN, AND PREPARATION METHOD THEREFOR AND USE THEREOF” (CRYSTAL PHARMACEUTICAL (SUZHOU) CO., LTD., priority 2023, published 2025).

“Also recorded” adds a separate entry of the source.

Holding throughout (type): physicochemical
Series [1] is described as follows: Hygroscopicity and humidity stability by DVS. The protocol: DVS data in the present disclosure were measured via an SMS (Surface Measurement Systems Ltd.) intrinsic DVS instrument. The instrument control software is DVS-Intrinsic control software. Typical Parameters for DVS test are as follows: • Temperature: 25° C. • Gas and flow rate: N2, 200 mL/min • RH range: 0% RH to 95% RH
DVS analyzer was applied to evaluate the hygroscopicity of Form CSI with an appropriate amount. The mass changes at each relative humidity were recorded in a cycle of 0% RH-95%RH-0%RH. The crystalline form of the sample before and after DVS were tested by XRPD.

Series [2] is described as follows: Stability under mechanical force (ball milling). The note with it: milled 5 minutes at 500 rpm, XRPD. How it is done:
The crystalline form of the sample before and after ball milling were tested by XRPD, and the XRPD overlay is depicted in FIG. 6.

A short description of series [3]: Physical and chemical stability on storage (XRPD, HPLC). How it is done: Chemical purity and crystalline form were tested by HPLC and XRPD.
Setting [4] is: 25° C./60% RH, 9 months, sealed container.
[5] abbreviates: 40° C./75% RH, 9 months, sealed container.
The mark [6] stands for this setting: 60° C./75% RH, 3 months, sealed container.

As to `CCc1nc(-c2ccc3c(c2)CC[C@H]3NC(=O)c2cnn(C)c2)no1.CCc1nc(-c2ccc3c(c2)CC[C@H]3NC(=O)c2cnn(C)c2)no1.O=C(O)C(O)C(O)C(=O)O` [Form CSI], the “Mass increase (weight gain) at 80% RH” value in series [1] (DVS, 25° C., equilibrium at 80% RH) was 0.18%. The “Crystalline form after humidity cycle” value in series [1] (cycle of 0% RH-95%RH-0%RH, XRPD) is “remains unchanged”. For the same compound, the “Crystalline form after ball milling” value in series [2] was “doesn't change; also recorded: no form change”. In addition, the “Time stable on storage (no change of crystalline form)” value in series [3] (25° C./60% RH) is “at least 9 months”; in series [3] (40° C./75% RH) it was “at least 9 months”; in series [3] (60° C./75% RH), “at least 3 months”. The Purity in series [3] (setting [4]) was 99.98%; in series [3] (setting [5]), 99.99%; in series [3] (setting [6]) it was 99.98%; in series [3] (Initial), 99.98%. Besides, the Solid form entry in series [3] (setting [4]), in series [3] (setting [5]), in series [3] (setting [6]) and in series [3] (Initial) was “Form CSI” in each case.
